Assay [1] relates to mice treated with carboplatin. In words: Example 2: dosing seven days before and/or 1 hour after carboplatin, hematological parameters in mice. Format: in vivo, BALB/c mouse. Here is the method: (§1) The effects of PEGylated TPO Compound No. 1 on mice treated with carboplatin were observed. For all examples herein, a 10 mg/ml stock solution of PEGylated TPO Compound No. 1 was prepared in sterile saline. For mixing, the preparation was placed on a gyratory shaker for 15min. at 200 rpm. This method was used to dissolve PEGylated TPO Compound No. 1 without foaming. The stock was filtered using a GV Millex (0.22um) filter. Dosing solutions were then prepared from this stock using sterile saline. The stock and dosing solutions were prepared fresh on the day of use.
The possibility that PEGylated TPO Compound No. 1 may sensitize bone marrow hematopoietic stem cells of mice to the toxic effects of carboplatin treatment was examined. For this study, a dose of PEGylated TPO Compound No. 1 was administered to the mice seven days prior to the carboplatin dose or immediately after carboplatin treatment. An additional group was treated with PEGylated TPO Compound No. 1 both prior to and after carboplatin administration. The effect of these dosing regimens on hematological parameters was also observed.
The groups of mice were treated with either carboplatin or vehicle (Phosphate Buffered Saline, PBS) by ip administration on Days 7 and 8 as delineated below. The optimal dose of carboplatin used to induce thrombocytopenia in the BALB/c mouse strain was previously determined to be a fractionated total dose of 120mg/kg given as two consecutive daily injections (i.e., 2x60mg/kg). Seven days prior to the first carboplatin dose or one (1) hour after the second dose of carboplatin, groups of mice were treated with PEGylated TPO Compound No. 1 (300ug/kg) or vehicle (sterile saline, SS, preservative-free 0.9% sodium chloride) by IV (bolus) injection as delineated in Table 2. An additional group was treated with PEGylated TPO Compound No. 1 both before (Day 0) and after (Day 8, t=1h) the carboplatin dose. All dosing was performed on a per-weight basis (100ul/10g body weight).
On Days 14, 18, 22 and 26, five mice in each test group were weighed and then euthanised using CO2-asphyxiation and exsanguination via cardiac puncture. The blood samples were transferred to separate EDTA (lavender-top) microcontainers for hematological evaluation. Groups of control mice (5) were processed on Days 14 and 26. The data are presented graphically as group means + SEM.

Assay [2] deals with mice treated with two rounds of carboplatin. In words: Example 5: two rounds of high-dose carboplatin, hematocrit and survival of mice. Format: in vivo. To be noted: of the mice not utilized for hematological evaluation; carboplatin alone versus combination therapy. As for the experimental part: as §1
Groups of mice were treated with two rounds of the chemotherapeutic agent (carboplatin) ten days apart, with each round consisting of two consecutive days of carboplatin (i.e., 70 mg/kg/day administered on Days -1 & 0 and Days 10 & 11) as delineated below. The dose of carboplatin utilized for these survival studies exceeded the maximal tolerated dose for mice (i.e., 120 mg/kg; administered as 60 mg/kg/day on 2 consecutive days). One hour following the second dose of carboplatin in each round (i.e., Day 0 and 11) mice were treated with PEGylated TPO Compound No. 1 (100ug/kg) or vehicle (sterile saline, SS, preservative-free 0.9% sodium chloride) by IV (bolus) injection as delineated below. The dose was administered on a per weight basis (100 ul/10g body weight). […]

In assay [3] the target is T1, human TPO receptor, c-mpl (hTPOr) (Homo sapiens, UniProt P40238).
T1 construct: expressed in transfected cells
T1 sequence (P40238 26-635): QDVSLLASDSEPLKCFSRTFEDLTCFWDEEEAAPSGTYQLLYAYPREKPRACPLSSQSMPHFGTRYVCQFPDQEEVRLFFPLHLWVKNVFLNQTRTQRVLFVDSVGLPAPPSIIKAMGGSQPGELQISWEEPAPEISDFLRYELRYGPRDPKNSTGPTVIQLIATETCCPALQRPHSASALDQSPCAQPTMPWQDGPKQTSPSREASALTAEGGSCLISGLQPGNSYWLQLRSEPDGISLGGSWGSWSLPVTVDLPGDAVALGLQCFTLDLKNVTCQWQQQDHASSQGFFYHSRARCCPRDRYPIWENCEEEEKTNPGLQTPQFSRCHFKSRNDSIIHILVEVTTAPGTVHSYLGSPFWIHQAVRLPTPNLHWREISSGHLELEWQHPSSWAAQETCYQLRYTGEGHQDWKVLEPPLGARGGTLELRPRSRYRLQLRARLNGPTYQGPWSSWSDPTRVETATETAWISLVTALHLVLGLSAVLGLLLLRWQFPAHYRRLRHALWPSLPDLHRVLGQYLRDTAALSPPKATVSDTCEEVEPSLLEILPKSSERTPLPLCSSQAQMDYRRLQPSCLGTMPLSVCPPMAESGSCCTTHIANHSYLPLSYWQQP
In words: Example 7: Baf/3 hTPOr fos/lux luciferase reporter assay (relative luminescent units). The assay is classed as cell-based. The source says:
The activity of the peptide compounds can be determined using standard relative luminescent units assay techniques. The assay employs, e.g., murine cells engineered to stably express the human TPO receptor and a luciferase reporter construct driven by the fos promoter. The assay may be performed as follows: Serum deprived Baf/3 hTPOr fos/lux cells expressing the human TPO receptor, c-mpl (hTPOr), and a luciferase reporter construct are exposed to increasing concentrations of either rhTPO or peptide compound for approximately 18 hours. Cells are then incubated in a medium containing a luciferase substrate and the luminescence of the cells is measured using a luminometer.

As usually defined, the EC50 is the concentration that produces a half-maximal response.

On to “Methoxypolyethyleneglycol20000-propionyl-L-Isoleucyl-L-Glutamyl-Glycyl-L-Prolyl-L-Threonyl-L-Leucyl-L-Arginyl-L-Glutaminyl-L-2-Naphthylalanyl-L-Leucyl-L-Alanyl-L-Alanyl-L-Arginyl-Sarcosyl-Ne-(methoxypolyethyleneglycol20000-propionyl-L-Isoleucyl-L-Glutamyl-Glycyl-L-Prolyl-L-Threonyl-L-Leucyl-L-Arginyl-L-Glutaminyl-L-2-Naphthylalanyl-L-Leucyl-L-Alanyl-L-Alanyl-L-Arginyl-Sarcosyl-)-Lysinamide [PEGylated TPO Compound No. 1]”, for which the “carboplatin-induced changes in erythrocyte parameters” value in assay [1] (300ug/kg iv on Day 0 (only), seven days prior to carboplatin) is listed as “failed to affect”. Further, the “decreases in hemoglobin levels, RBC counts and hematocrits caused by carboplatin” value in assay [1] (300ug/kg iv on Day 8 (1 hour after the second carboplatin treatment) only) and in assay [1] (300ug/kg iv on Day 8 with an additional dose on Day 0) was “prevented” throughout. The “body weight loss between Days 7 and 26” value in assay [1] (co-treatment, all regimens, no statistical analysis) is “prevented this weight loss”. The “onset of signs (hunching, unkempt)” value in assay [1] (treatment on Day 8 without or with additional treatment on Day 0) is listed as “appeared to delay the onset of these signs”. Further, the “severity and duration of signs (hunching, unkempt)” value in assay [1] (treatment on Days 0 and 8) is “decreased the severity and duration”. In addition, the “mice that died between days 4 and 18” value in assay [2] came to 1. The half-maximal effective concentration (EC50) in assay [3] (Baf/3 cells recombinantly expressing human TPO-R, approximately 18 hours) is roughly 5 pM. Also, the “activation of TPO-R compared with TPO” value in assay [3] (at the same concentration as TPO) was “stronger activation”. Besides, the “activation of Baf/3 cells recombinantly expressing human TPO-R” value in assay [3] (increasing concentrations) is “dose dependent”.

The record behind these values is patent EP1984014B1, “USE OF TPO PEPTIDE COMPOUNDS AND PHARMACEUTICAL COMPOSITIONS IN THE TREATMENT OF ANEMIA” (Janssen Pharmaceutica NV, priority 2006, dated 2007).
